In assay [1] the target is T1, CRF1R (Homo sapiens, UniProt P34998).
T1 sequence (P34998 24-415): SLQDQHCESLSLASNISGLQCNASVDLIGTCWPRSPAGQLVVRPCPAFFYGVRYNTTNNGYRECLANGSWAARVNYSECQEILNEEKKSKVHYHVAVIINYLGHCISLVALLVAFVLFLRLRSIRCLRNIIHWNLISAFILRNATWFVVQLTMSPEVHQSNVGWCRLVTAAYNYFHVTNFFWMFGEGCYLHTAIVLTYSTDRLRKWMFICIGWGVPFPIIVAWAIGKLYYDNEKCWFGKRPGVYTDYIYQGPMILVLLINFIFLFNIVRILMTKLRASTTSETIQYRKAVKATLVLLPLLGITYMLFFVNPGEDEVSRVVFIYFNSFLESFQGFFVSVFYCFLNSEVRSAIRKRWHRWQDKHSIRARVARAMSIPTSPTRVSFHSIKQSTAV
The experiment in a line: CRF1R agonist activation (EC50 / Emax), called comparative CRF binding. The assay is classed as cell-based. The conditions noted are these: for Emax: read-out: CRF1R Emax; for EC50: read-out: CRF1R EC50. The method, boiled down: (§1)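 Agonism is scored from cAMP rise, assayed in lysates or through CRE-driven reporter expression, after peptide contact with cells bearing human CRF2R or CRF1R, compared against vehicle-treated cells.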

The target in assay [2] is T2, CRF2R (Homo sapiens, UniProt Q13324).
T2 sequence (Q13324 1-411): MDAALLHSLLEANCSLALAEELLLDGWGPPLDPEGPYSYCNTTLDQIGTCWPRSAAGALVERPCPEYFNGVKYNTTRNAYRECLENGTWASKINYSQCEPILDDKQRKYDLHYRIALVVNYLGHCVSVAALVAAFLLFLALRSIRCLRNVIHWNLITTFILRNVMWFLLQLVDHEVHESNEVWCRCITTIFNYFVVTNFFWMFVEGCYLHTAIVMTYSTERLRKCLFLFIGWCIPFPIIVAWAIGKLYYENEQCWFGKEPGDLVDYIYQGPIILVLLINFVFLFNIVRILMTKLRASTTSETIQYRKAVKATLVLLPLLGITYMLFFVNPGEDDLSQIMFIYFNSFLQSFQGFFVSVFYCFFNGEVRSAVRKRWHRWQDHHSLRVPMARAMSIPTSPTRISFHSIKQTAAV
The experiment in a line: CRF2R agonist activation (EC50 / Emax), called comparative CRF binding. The assay is classed as cell-based. The conditions noted are these: for Emax: read-out: CRF2R Emax; for EC50: read-out: CRF2R EC50. In a few lines: as §1

Molecules are shown by their SMILES. Peptide text beside a SMILES is read from it. Bounds are passed on as bounds.

Turning to `CC[C@H](C)[C@H](NC(=O)[C@H](CCC(=O)O)NC(=O)[C@H](C)NC(=O)[C@H](CC(N)=O)NC(=O)[C@H](CCC(N)=O)NC(=O)[C@H](CCC(=O)O)NC(=O)[C@H](C)NC(=O)[C@H](CCCNC(=N)N)NC(=O)[C@H](CCC(=O)O)NC(=O)[C@H](CCCNC(=N)N)NC(=O)[C@H](CCC(N)=O)NC(=O)[C@H](CO)NC(=O)[C@H](CCC(N)=O)NC(=O)[C@@H](NC(=O)[C@H](CCCCN)NC(=O)[C@H](CCC(=O)O)NC(=O)[C@H](CC(C)C)NC(=O)[C@H](CCC(=O)O)NC(=O)[C@H](CC(C)C)NC(=O)[C@H](CC(C)C)NC(=O)[C@@H](NC(=O)[C@H](CCCNC(=N)N)NC(=O)[C@H](CC(C)C)NC(=O)[C@H](CC(C)C)NC(=O)[C@H](CC(C)C)NC(=O)[C@H](CC(C)C)NC(=O)[C@@H]1CCCN1C(=O)[C@H](CC(C)C)NC(=O)[C@H](CC(=O)O)NC(=O)[C@@H](NC(=O)[C@H](CO)NC(=O)[C@H](CC(C)C)NC(=O)[C@H](CO)NC(=O)[C@@H]1CCCN1C(=O)[C@H](CC(N)=O)NC(=O)[C@@H](N)CC(=O)O)[C@@H](C)CC)[C@@H](C)O)[C@@H](C)O)C(=O)N[C@@H](Cc1ccccc1)C(=O)N[C@@H](C)C(=O)N[C@@H](CCC(=O)O)C(=O)N[C@H](C(N)=O)C(C)C` [compound 323] (H-DNPSLSIDLPLLLLRTLLELEKTQSQRERAEQNAEIFAEV-NH2; N-terminus assumed), the figures for the Emax in assay [1] and in assay [2] were 36.9% and 100%, respectively.

Take `CC[C@H](C)[C@H](NC(=O)[C@H](CCC(N)=O)NC(=O)[C@H](C)NC(=O)[C@H](CC(N)=O)NC(=O)[C@H](CCC(N)=O)NC(=O)[C@H](CCC(=O)O)NC(=O)[C@H](C)NC(=O)[C@H](CCCNC(=N)N)NC(=O)[C@H](CCC(=O)O)NC(=O)[C@H](CCCNC(=N)N)NC(=O)[C@H](CCC(N)=O)NC(=O)[C@H](CO)NC(=O)[C@H](CCC(N)=O)NC(=O)[C@@H](NC(=O)[C@H](CCCCN)NC(=O)[C@H](CCC(=O)O)NC(=O)[C@H](CC(C)C)NC(=O)[C@H](CCC(=O)O)NC(=O)[C@H](CC(C)C)NC(=O)[C@H](CC(C)C)NC(=O)[C@@H](NC(=O)[C@H](CCCNC(=N)N)NC(=O)[C@H](CC(C)C)NC(=O)[C@H](CC(C)C)NC(=O)[C@H](CC(C)C)NC(=O)[C@H](CC(C)C)NC(=O)[C@@H]1CCCN1C(=O)[C@H](CC(C)C)NC(=O)[C@H](CC(=O)O)NC(=O)[C@@H](NC(=O)[C@H](CO)NC(=O)[C@H](CC(C)C)NC(=O)[C@H](CO)NC(=O)[C@@H]1CCCN1C(=O)[C@H](CC(N)=O)NC(=O)[C@@H](N)CC(=O)O)[C@@H](C)CC)[C@@H](C)O)[C@@H](C)O)C(=O)N[C@@H](Cc1ccccc1)C(=O)N[C@@H](C)C(=O)N[C@@H](Cc1c[nH]cn1)C(=O)N[C@H](C(N)=O)C(C)C` [compound 324] (H-DNPSLSIDLPLLLLRTLLELEKTQSQRERAEQNAQIFAHV-NH2; N-terminus assumed): the figures for the EC50 in assay [1] and in assay [2] were ≥ 1000 nM and 17.2 nM, respectively. The Emax stood at 46.6% in assay [1] and 100% in assay [2].

On to `CC[C@H](C)[C@H](NC(=O)[C@H](CC(N)=O)NC(=O)[C@H](C)NC(=O)[C@H](CC(N)=O)NC(=O)[C@H](CCC(N)=O)NC(=O)[C@H](CCC(=O)O)NC(=O)[C@H](C)NC(=O)[C@H](CCCNC(=N)N)NC(=O)[C@H](CCC(=O)O)NC(=O)[C@H](CCCNC(=N)N)NC(=O)[C@H](CCC(N)=O)NC(=O)[C@H](CO)NC(=O)[C@H](CCC(N)=O)NC(=O)[C@@H](NC(=O)[C@H](CCCCN)NC(=O)[C@H](CCC(=O)O)NC(=O)[C@H](CC(C)C)NC(=O)[C@H](CCC(=O)O)NC(=O)[C@H](CC(C)C)NC(=O)[C@H](CC(C)C)NC(=O)[C@@H](NC(=O)[C@H](CCCNC(=N)N)NC(=O)[C@H](CC(C)C)NC(=O)[C@H](CC(C)C)NC(=O)[C@H](CC(C)C)NC(=O)[C@H](CC(C)C)NC(=O)[C@@H]1CCCN1C(=O)[C@H](CC(C)C)NC(=O)[C@H](CC(=O)O)NC(=O)[C@@H](NC(=O)[C@H](CO)NC(=O)[C@H](CC(C)C)NC(=O)[C@H](CO)NC(=O)[C@@H]1CCCN1C(=O)[C@H](CC(N)=O)NC(=O)[C@@H](N)CC(=O)O)[C@@H](C)CC)[C@@H](C)O)[C@@H](C)O)C(=O)N[C@@H](Cc1ccccc1)C(=O)N[C@@H](C)C(=O)N[C@@H](CC(N)=O)C(=O)N[C@H](C(N)=O)C(C)C` [compound 326] (H-DNPSLSIDLPLLLLRTLLELEKTQSQRERAEQNANIFANV-NH2; N-terminus assumed), for which the concentration giving a half-maximal response (EC50) in assay [1] is ≥ 1000 nM; in assay [2] it was 33.7 nM. Further, the Emax in assay [1] turned out to be 30.1%; in assay [2], 100%.

As to `CC[C@H](C)[C@H](NC(=O)[C@H](CCC(N)=O)NC(=O)[C@H](C)NC(=O)[C@H](CC(N)=O)NC(=O)[C@H](CCC(N)=O)NC(=O)[C@H](CCC(=O)O)NC(=O)[C@H](C)NC(=O)[C@H](CCCNC(=N)N)NC(=O)[C@H](CCC(=O)O)NC(=O)[C@H](CCCNC(=N)N)NC(=O)[C@H](CCC(N)=O)NC(=O)[C@H](CO)NC(=O)[C@H](CCC(N)=O)NC(=O)[C@@H](NC(=O)[C@H](CCCCN)NC(=O)[C@H](CCC(=O)O)NC(=O)[C@H](CC(C)C)NC(=O)[C@H](CCC(=O)O)NC(=O)[C@H](CC(C)C)NC(=O)[C@H](CC(C)C)NC(=O)[C@@H](NC(=O)[C@H](CCCNC(=N)N)NC(=O)[C@H](CC(C)C)NC(=O)[C@H](CC(C)C)NC(=O)[C@H](CC(C)C)NC(=O)[C@H](CC(C)C)NC(=O)[C@@H]1CCCN1C(=O)[C@H](CC(C)C)NC(=O)[C@H](CC(=O)O)NC(=O)[C@@H](NC(=O)[C@H](CO)NC(=O)[C@H](CC(C)C)NC(=O)[C@H](CO)NC(=O)[C@@H]1CCCN1C(=O)[C@H](CC(N)=O)NC(=O)[C@@H](N)CC(=O)O)[C@@H](C)CC)[C@@H](C)O)[C@@H](C)O)C(=O)N[C@@H](Cc1ccccc1)C(=O)N[C@@H](C)C(=O)N[C@@H](CCC(N)=O)C(=O)N[C@H](C(N)=O)C(C)C` [compound 327] (H-DNPSLSIDLPLLLLRTLLELEKTQSQRERAEQNAQIFAQV-NH2; N-terminus assumed), the values for the Emax in assay [1] and in assay [2] were 36.5% and 100%, respectively.

As for `CC[C@H](C)[C@H](NC(=O)[C@H](Cc1c[nH]cn1)NC(=O)[C@H](C)NC(=O)[C@H](CC(N)=O)NC(=O)[C@H](CCC(N)=O)NC(=O)[C@H](CCC(=O)O)NC(=O)[C@H](C)NC(=O)[C@H](CCCNC(=N)N)NC(=O)[C@H](CCC(=O)O)NC(=O)[C@H](CCCNC(=N)N)NC(=O)[C@H](CCC(N)=O)NC(=O)[C@H](CO)NC(=O)[C@H](CCC(N)=O)NC(=O)[C@@H](NC(=O)[C@H](CCCCN)NC(=O)[C@H](CCC(=O)O)NC(=O)[C@H](CC(C)C)NC(=O)[C@H](CCC(=O)O)NC(=O)[C@H](CC(C)C)NC(=O)[C@H](CC(C)C)NC(=O)[C@@H](NC(=O)[C@H](CCCNC(=N)N)NC(=O)[C@H](CC(C)C)NC(=O)[C@H](CC(C)C)NC(=O)[C@H](CC(C)C)NC(=O)[C@H](CC(C)C)NC(=O)[C@@H]1CCCN1C(=O)[C@H](CC(C)C)NC(=O)[C@H](CC(=O)O)NC(=O)[C@@H](NC(=O)[C@H](CO)NC(=O)[C@H](CC(C)C)NC(=O)[C@H](CO)NC(=O)[C@@H]1CCCN1C(=O)[C@H](CC(N)=O)NC(=O)[C@@H](N)CC(=O)O)[C@@H](C)CC)[C@@H](C)O)[C@@H](C)O)C(=O)N[C@@H](Cc1ccccc1)C(=O)N[C@@H](C)C(=O)N[C@@H](Cc1c[nH]cn1)C(=O)N[C@H](C(N)=O)C(C)C` [compound 328] (H-DNPSLSIDLPLLLLRTLLELEKTQSQRERAEQNAHIFAHV-NH2; N-terminus assumed), in assay [1], the EC50 is ≥ 1000 nM and the Emax was found to be 30.7%. Moreover, in assay [2], the EC50 was determined as 11.7 nM and the Emax is 95.7%.

For the molecule `CC[C@H](C)[C@H](NC(=O)[C@H](CCCNC(=N)N)NC(=O)[C@H](C)NC(=O)[C@H](CC(N)=O)NC(=O)[C@H](CCC(N)=O)NC(=O)[C@H](CCC(=O)O)NC(=O)[C@H](C)NC(=O)[C@H](CCCNC(=N)N)NC(=O)[C@H](CCC(=O)O)NC(=O)[C@H](CCCNC(=N)N)NC(=O)[C@H](CCC(N)=O)NC(=O)[C@H](CO)NC(=O)[C@H](CCC(N)=O)NC(=O)[C@@H](NC(=O)[C@H](CCCNC(=N)N)NC(=O)[C@H](C)NC(=O)[C@H](CC(C)C)NC(=O)[C@H](CCC(=O)O)NC(=O)[C@H](CC(C)C)NC(=O)[C@H](CC(C)C)NC(=O)[C@@H](NC(=O)[C@H](CCCNC(=N)N)NC(=O)[C@H](CC(C)C)NC(=O)[C@H](CC(C)C)NC(=O)[C@H](Cc1ccccc1)NC(=O)[C@H](CC(C)C)NC(=O)[C@@H]1CCCN1C(=O)[C@H](CC(C)C)NC(=O)[C@H](CC(=O)O)NC(=O)[C@@H](NC(=O)[C@H](CO)NC(=O)[C@H](CC(C)C)NC(=O)[C@H](CO)NC(=O)[C@@H]1CCCN1C(=O)[C@H](CC(N)=O)NC(=O)[C@@H](N)CC(=O)O)[C@@H](C)CC)[C@@H](C)O)[C@@H](C)O)C(=O)N[C@@H](Cc1ccccc1)C(=O)N[C@@H](C)C(=O)N[C@@H](CCCNC(=N)N)C(=O)N[C@H](C(N)=O)C(C)C` [compound 329] (H-DNPSLSIDLPLFLLRTLLELARTQSQRERAEQNARIFARV-NH2; N-terminus assumed), the Emax came out at 98.4% in assay [1] and 98.3% in assay [2].

Values taken from patent US6936585B2, “Corticotropin releasing factor 2 receptor agonists” (priority 2002, dated 2005).
